Read-outs that look alike come from different tables or passages of the source.
How the values were obtained:
human CB2 receptors = molecular target: T1, human CB2 receptors (Homo sapiens, UniProt P34972); assay: human CB2 radioligand binding assay ([3H]CP 55,940 competition); conditions: HEK293 membranes, 0.5 nM [3H]CP 55,940
T1 construct: expressed in transfected cells; host or cells: HEK293
Experimental: (§1) The CB1 and CB2 radioligand binding assays described herein are utilized to ascertain the affinity of compounds of the present application for binding to CB2 relative to CB1 receptors.
HEK293 cells stably expressing human CB2 receptors were grown until a confluent monolayer was formed. Briefly, the cells were harvested and homogenized in TE buffer (50 mM Tris-HCl, 1 mM MgCl2, and 1 mM EDTA) using a polytron for 2×10 second bursts in the presence of protease inhibitors, followed by centrifugation at 45,000×g for 20 minutes. The final membrane pellet was re-homogenized in storage buffer (50 mM Tris-HCl, 1 mM MgCl2, and 1 mM EDTA and 10% sucrose) and frozen at −78° C. until used. Saturation binding reactions were initiated by the addition of membrane preparation (protein concentration of 5 μg/well for human CB2) into wells of a deep well plate containing [^3H]CP 55,940 (120 Ci/mmol, a nonselective CB agonist commercially available from Tocris) in assay buffer (50 mM Tris, 2.5 mM EDTA, 5 mM MgCl2, and 0.5 mg/mL fatty acid free BSA, pH 7.4). After 90 min incubation at 30° C., binding reaction was terminated by the addition of 300 μL/well of cold assay buffer followed by rapid vacuum filtration through a UniFilter-96 GF/C filter plates (pre-soaked in 1 mg/mL BSA for 2 hours). The bound activity was counted in a TopCount using Microscint-20. Saturation experiments were conducted with twelve concentrations of [^3H]CP 55,940 ranging from 0.01 to 8 nM. Competition experiments were conducted with 0.5 nM [^3H]CP 55,940 and five concentrations (0.01 nM to 10 μM) of displacing ligands. The addition of 10 μM unlabeled CP 55,940 (Tocris, Ellisville, Mo.) was used to assess nonspecific binding.

rat CB2 = molecular target: T2, rat CB2 (Rattus norvegicus, UniProt Q9QZN9); assay: rat CB2 radioligand binding assay ([3H]CP 55,940 competition); set-up: expressed in transfected cells; host or cells: HEK293; conditions: HEK293 membranes, 0.5 nM [3H]CP 55,940
T2 sequence (Q9QZN9 1-360): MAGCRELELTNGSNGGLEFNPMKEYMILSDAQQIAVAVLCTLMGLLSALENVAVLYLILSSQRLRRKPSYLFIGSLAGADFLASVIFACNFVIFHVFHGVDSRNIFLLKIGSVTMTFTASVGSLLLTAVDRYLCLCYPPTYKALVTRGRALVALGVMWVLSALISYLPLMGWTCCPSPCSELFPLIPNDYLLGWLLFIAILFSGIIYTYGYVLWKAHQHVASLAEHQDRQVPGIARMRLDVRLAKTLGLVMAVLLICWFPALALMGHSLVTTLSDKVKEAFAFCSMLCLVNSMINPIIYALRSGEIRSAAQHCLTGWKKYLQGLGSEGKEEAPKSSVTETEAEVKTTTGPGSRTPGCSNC
Experimental: as §1
HEK293 cells stably expressing rat CB2 receptors were grown until a confluent monolayer was formed. Briefly, the cells were harvested and homogenized in TE buffer (50 mM Tris-HCl, 1 mM MgCl2, and 1 mM EDTA) using a polytron for 2×10 second bursts in the presence of protease inhibitors, followed by centrifugation at 45,000×g for 20 minutes. The final membrane pellet was re-homogenized in storage buffer (50 mM Tris-HCl, 1 mM MgCl2, and 1 mM EDTA and 10% sucrose) and frozen at −78° C. until used. Saturation binding reactions were initiated by the addition of membrane preparation (protein concentration of 20 μg/well for rat CB2) into wells of a deep well plate containing [^3H]CP 55,940 (120 Ci/mmol, a nonselective CB agonist commercially available from Tocris) in assay buffer (50 mM Tris, 2.5 mM EDTA, 5 mM MgCl2, and 0.5 mg/mL fatty acid free BSA, pH 7.4). After 45 min incubation at 30° C., binding reaction was terminated by the addition of […] of cold assay buffer followed by rapid vacuum filtration through a UniFilter-96 GF/C filter plates (pre-soaked in 1 mg/mL BSA for 2 hours). The bound activity was counted in a TopCount using Microscint-20. Saturation experiments were conducted with twelve concentrations of [^3H]CP 55,940 ranging from 0.01 to 8 nM. Competition experiments were conducted with 0.5 nM [^3H]CP 55,940 and five concentrations of displacing ligands selected from the range of 0.01 nM to 10 μM. The addition of 10 μM unlabeled CP 55,940 (Tocris, Ellisville, Mo.) was used to assess nonspecific binding.

T1 sequence (P34972 whole entry): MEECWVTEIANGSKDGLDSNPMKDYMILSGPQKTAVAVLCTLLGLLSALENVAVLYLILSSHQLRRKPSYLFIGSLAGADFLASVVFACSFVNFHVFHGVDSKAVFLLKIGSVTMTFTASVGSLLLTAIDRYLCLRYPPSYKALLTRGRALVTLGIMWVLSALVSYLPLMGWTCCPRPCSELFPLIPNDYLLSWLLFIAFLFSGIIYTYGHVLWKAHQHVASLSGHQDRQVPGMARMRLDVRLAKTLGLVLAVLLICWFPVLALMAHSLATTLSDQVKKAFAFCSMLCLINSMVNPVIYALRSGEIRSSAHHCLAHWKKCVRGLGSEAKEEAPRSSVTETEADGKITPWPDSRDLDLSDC

SMILES: CC(=O)NCCOc1ccc(C(F)(F)F)cc1C(=O)/N=c1\cc(C(C)(C)C)n(C)n1CC1CCC1 [Example 130, 2-[2-(acetylamino)ethoxy]-N-[(3E)-5-tert-butyl-2-(cyclobutylmethyl)-1-methyl-1,2-dihydro-3H-pyrazol-3-ylidene]-5-(trifluoromethyl)benzamide]
- Ki (human CB2 receptors; human CB2 (Ki, nM)): 5 nM
- Ki (rat CB2; rat CB2 (Ki, nM)): 2.9 nM

SMILES: C[C@H](O)[C@H](C)Oc1ccc(C(F)(F)F)cc1C(=O)/N=c1\cc(C(C)(C)C)n(C)n1C[C@H]1CCCO1 [Example 103, N-{(3E)-5-tert-butyl-1-methyl-2-[(2R)-tetrahydrofuran-2-ylmethyl]-1,2-dihydro-3 H-pyrazol-3-ylidene}-2-{[(1S,2S)-2-hydroxy-1-methylpropyl]oxy}-5-(trifluoromethyl)benzamide]
- Ki (human CB2 receptors; human CB2 (Ki, nM)): 3.8 nM
- Ki (rat CB2; rat CB2 (Ki, nM)): 1.7 nM

SMILES: CCCCn1cc(C(C)(C)C)o/c1=N\C(=O)c1cc(C(F)(F)F)ccc1OCC(C)(C)O [Example 93, N-[(2Z)-3-butyl-5-tert-butyl-1,3-oxazol-2(3H)-ylidene]-2-(2-hydroxy-2-methylpropoxy)-5-(trifluoromethyl)benzamide]
- Ki (human CB2 receptors; human CB2 (Ki, nM)): 3.6 nM
- Ki (rat CB2; rat CB2 (Ki, nM)): 3.9 nM

SMILES: CCCCn1/c(=N/C(=O)c2cc(C#N)ccc2OCC(C)(C)O)cc(C(C)(C)C)n1C [Example 108, N-[(3E)-2-butyl-5-tert-butyl-1-methyl-1,2-dihydro-3H-pyrazol-3-ylidene]-5-cyano-2-(2-hydroxy-2-methylpropoxy)benzamide]
- Ki (human CB2 receptors; read-out: human CB2 (Ki)): > 1000 nM
- Ki (rat CB2; read-out: rat CB2 (Ki)): 288 nM

SMILES: CCCCn1ccc(C(C)(C)C)c/c1=N\C(=O)c1cc(C(F)(F)F)ccc1OCC(C)(C)O [Example 92, N-[(2E)-1-butyl-4-tert-butylpyridin-2(1H)-ylidene]-2-(2-hydroxy-2-methylpropoxy)-5-(trifluoromethyl)benzamide]
- Ki (human CB2 receptors; human CB2 (Ki, nM)): 73 nM
- Ki (rat CB2; rat CB2 (Ki, nM)): 47 nM

SMILES: Cn1c(C(C)(C)C)c/c(=N\C(=O)c2cc(C(F)(F)F)ccc2OCC2(C)COC2)n1C[C@H]1CCCO1 [Example 19, N-{(3E)-5-tert-butyl-1-methyl-2-[(2R)-tetrahydrofuran-2-ylmethyl]-1,2-dihydro-3H-pyrazol-3-ylidene}-2-[3-methyloxetan-3-methoxyl]-5-(trifluoromethyl)benzamide]
- Ki (human CB2 receptors; human CB2 (Ki, nM)): > 1000 nM
- Ki (rat CB2; rat CB2 (Ki, nM)): 323 nM

SMILES: Cn1c(C(C)(C)C)c/c(=N\C(=O)c2cc(C(F)(F)F)ccc2OCC(C)(C)S(C)(=O)=O)n1C[C@H]1CCCO1 [Example 65, N-{(3E)-5-tert-butyl-1-methyl-2-[(2R)-tetrahydrofuran-2-ylmethyl]-1,2-dihydro-3H-pyrazol-3-ylidene}-2-[2-methyl-2-(methylsulfonyl)propoxy]-5-(trifluoromethyl)benzamide]
- Ki (human CB2 receptors; read-out: human CB2 (Ki)): > 1000 nM
- Ki (rat CB2; read-out: rat CB2 (Ki)): > 1000 nM

SMILES: C[C@H](O)COc1ccc(C(F)(F)F)cc1C(=O)/N=c1\cc(C(C)(C)C)n(C)n1C[C@H]1CCCO1 [Example 98, N-{(3E)-5-tert-butyl-1-methyl-2-[(2R)-tetrahydrofuran-2-ylmethyl]-1,2-dihydro-3 H-pyrazol-3-ylidene}-2-{[(2S)-2-hydroxypropyl]oxy}-5-(trifluoromethyl)benzamide]
- Ki (human CB2 receptors; human CB2 (Ki, nM)): 4.6 nM
- Ki (rat CB2; rat CB2 (Ki, nM)): 6.6 nM

SMILES: CSCCCCOc1ccc(C(F)(F)F)cc1C(=O)/N=c1\cc(C(C)(C)C)n(C)n1C[C@H]1CCCO1 [Example 82, N-{(3E)-5-tert-butyl-1-methyl-2-[(2R)-tetrahydrofuran-2-ylmethyl]-1,2-dihydro-3 H-pyrazol-3-ylidene}-2-[4-(methylthio)butoxy]-5-(trifluoromethyl)benzamide]
- Ki (human CB2 receptors; human CB2 (Ki, nM)): 5.4 nM
- Ki (rat CB2; rat CB2 (Ki, nM)): 2.6 nM

SMILES: CCCCn1/c(=N/C(=O)c2cc(C(F)(F)F)ccc2SCC(C)O)cc(C(C)(C)C)n1C (stereo not drawn) [Example 136, N-[(3E)-2-butyl-5-tert-butyl-1-methyl-1,2-dihydro-3H-pyrazol-3-ylidene]-2-[(2-hydroxypropyl)thio]-5-(trifluoromethyl)benzamide]
- Ki (human CB2 receptors; human CB2 (Ki, nM)): 44 nM
- Ki (rat CB2; rat CB2 (Ki, nM)): 16 nM

SMILES: CC(C)c1c/c(=N\C(=O)c2cc(C(F)(F)F)ccc2OCC(C)(C)O)n(CC2CCCC2)n1C [Example 114, N-[(3E)-2-(cyclopentylmethyl)-5-isopropyl-1-methyl-1,2-dihydro-3H-pyrazol-3-ylidene]-2-(2-hydroxy-2-methylpropoxy)-5-(trifluoromethyl)benzamide]
- Ki (human CB2 receptors; read-out: human CB2 (Ki)): 129 nM
- Ki (rat CB2; rat CB2 (Ki, nM)): 35 nM

SMILES: CCCCn1/c(=N/C(=O)c2cc(C(F)(F)F)ccc2SCC(N)=O)cc(C(C)(C)C)n1C [Example 140, 2-[(2-amino-2-oxoethyl)thio]-N-[(3E)-2-butyl-5-tert-butyl-1-methyl-1,2-dihydro-3H-pyrazol-3-ylidene]-5-(trifluoromethyl)benzamide]
- Ki (human CB2 receptors; human CB2 (Ki, nM)): 136 nM
- Ki (rat CB2; rat CB2 (Ki, nM)): 11 nM

SMILES: C/C(COc1ccc(C(F)(F)F)cc1C(=O)/N=c1\cc(C(C)(C)C)n(C)n1C[C@H]1CCCO1)=N\OC1CCCCO1 (stereo partly drawn) [Example 79]
- Ki (human CB2 receptors; read-out: human CB2 (Ki)): > 1000 nM
- Ki (rat CB2; read-out: rat CB2 (Ki)): 128 nM

SMILES: CC(C)(C)c1nn(CCCC#N)/c(=N/C(=O)c2cc(C(F)(F)F)ccc2OCCCC#N)s1 [Example 85, N-[(2Z)-5-tert-butyl-3-(3-cyanopropyl)-1,3,4-thiadiazol-2(3H)-ylidene]-2-(3-cyanopropoxy)-5-(trifluoromethyl)benzamide]
- Ki (human CB2 receptors; human CB2 (Ki, nM)): 20 nM
- Ki (rat CB2; rat CB2 (Ki, nM)): 2.5 nM

SMILES: Cn1c(C(C)(C)C)c/c(=N\C(=O)c2cc(C(F)(F)F)ccc2OC[C@@H](O)C(C)(C)C)n1C[C@H]1CCCO1 [Example 112, N-{(3E)-5-tert-butyl-1-methyl-2-[(2R)-tetrahydrofuran-2-ylmethyl]-1,2-dihydro-3H-pyrazol-3-ylidene}-2-{[(2S)-2-hydroxy-3,3-dimethylbutyl]oxy}-5-(trifluoromethyl)benzamide]
- Ki (human CB2 receptors; human CB2 (Ki, nM)): 6.7 nM
- Ki (rat CB2; rat CB2 (Ki, nM)): 1.9 nM

SMILES: Cn1c(C(C)(C)C)c/c(=N\C(=O)c2cc(C(F)(F)F)ccc2OCC(C)(C)OCc2ccccc2)n1C[C@H]1CCCO1 [Example 55, 2-[2-(benzyloxy)-2-methylpropoxy]-N-{(3E)-5-tert-butyl-1-methyl-2-[(2R)-tetrahydrofuran-2-ylmethyl]-1,2-dihydro-3H-pyrazol-3-ylidene}-5-(trifluoromethyl)benzamide]
- Ki (human CB2 receptors; human CB2 (Ki, nM)): > 1000 nM
- Ki (rat CB2; rat CB2 (Ki, nM)): 458 nM

SMILES: Cn1c(C(C)(C)C)c/c(=N\C(=O)c2cc(Br)ccc2OCC(C)(C)O)n1C[C@H]1CCCO1 [Example 128, 5-bromo-N-{(3E)-5-tert-butyl-1-methyl-2-[(2R)-tetrahydrofuran-2-ylmethyl]-1,2-dihydro-3H-pyrazol-3-ylidene}-2-(2-hydroxy-2-methylpropoxy)benzamide]
- Ki (human CB2 receptors; human CB2 (Ki, nM)): 15 nM
- Ki (rat CB2; rat CB2 (Ki, nM)): 4.9 nM

SMILES: Cn1c(C(C)(C)C)c/c(=N\C(=O)c2cc(C(F)(F)F)ccc2OC[C@@H](O)CNC(C)(C)C)n1C[C@H]1CCCO1 [Example 105, 2-{[(2S)-3-(tert-butylamino)-2-hydroxypropyl]oxy}-N-{(3E)-5-tert-butyl-1-methyl-2-[(2R)-tetrahydrofuran-2-ylmethyl]-1,2-dihydro-3H-pyrazol-3-ylidene}-5-(trifluoromethyl)benzamide]
- Ki (human CB2 receptors; read-out: human CB2 (Ki)): > 1000 nM
- Ki (rat CB2; read-out: rat CB2 (Ki)): 406 nM

— patent US8188135B2, “Compounds as cannabinoid receptor ligands” (priority 2008, dated 2012)
